Measurements as given in patent US20130178450A1, “METHODS FOR INCREASING THE PRODUCTION OR ACTIVITY OF CATALASE” (Nestec SA, priority 2010, published 2013).

Legend:
Assay type in all cases: cell-based, canine
[1] = test system: CAT; test: Quantitative PCR gene expression of CAT in cbTCC cells; conditions: 24 hours, normalized to Cyclophilin A, mean ± SEM, control 1.86 ± 0.11
[2] = test system: MnSOD; test: Quantitative PCR gene expression of MnSOD in cbTCC cells; conditions: 24 hours, normalized to Cyclophilin A, mean ± SEM, control 1.28 ± 0.05
[3] = test system: Cu/ZnSOD; test: Quantitative PCR gene expression of Cu/ZnSOD in cbTCC cells; conditions: 24 hours, normalized to Cyclophilin A, mean ± SEM, control 1.11 ± 0.02
[4] = test system: catalase (CAT); test: Enzymatic activity of catalase in treated cbTCC cells (Cayman kit, Purpald); conditions: 24 hours, mean ± standard deviation, control 11.20 ± 0.43
Procedure: Treatments were done in at least triplicates. […] The enzymatic activity of catalase was determined using assay kits from Cayman Chemical Co., Ann Arbor, Mich., according to manufacturer's directions. The assay utilized the peroxidatic function of CAT for determination of enzymatic activity, based on the reaction of the enzyme with methanol in the presence of an optimal concentration of H2O2. […] Purpald specifically forms a bicyclic heterocycle with aldehydes, which upon oxidation changes from colorless to a purple color. The absorbance was read at 540 nm using a spectrophotometric plate reader. Results were calculated from standard curve from known samples and by using the provided equations. From that, the enzymatic activity of CAT was derived as nmol/min/ml CAT. Samples were done in triplicate. A one-tail t-test assuming equal variance was performed to determine significance.

[5] = test system: PTHrP; test: Quantitative PCR gene expression of PTHrP in cbTCC cells; conditions: 24 hours, normalized to Cyclophilin A, mean ± SEM, control 1.35 ± 0.09
[6] = test system: catalase (CAT); test: Western blot analysis of catalase protein expression in cbTCC cells; conditions: 10^−9M, 24 hours, normalized to β-actin, control = 100 percent, ± standard deviation
Procedure: (§1) Treatments were done in at least triplicates. […] Harvested cells were homogenized, and analyzed for the production of manganese superoxide dismutase (MnSOD), copper/zinc superoxide dismutase (Cu/ZnSOD), catalase (CAT), and glutathione peroxidase (GPX). Cell lysates were collected after centrifugation, and total protein was quantitated. […] Transblotted membranes were blocked overnight at 4° C. with the addition of 5% skim milk in Tris-buffered saline (TBS). The membranes were cut at the molecular weight of 37 kD (green band) and 25 kD (pink band). The top part of the membranes were stained for CAT, GPX, and β-actin, and the bottom part for MnSOD and Cu/ZnSOD. The primary antibodies for specific proteins were used at the following dilutions: […] Secondary antibodies are their respective IgG-HRP conjugates used at 1:2000. […] CAT, MnSOD and Cu/ZnSOD, n=7; GPX, n=4. Prior to transforming data as percent of control, a one-tail paired t-test assuming equal variance was performed to determine significance.

[7] = test system: copper/zinc superoxide dismutase (Cu/ZnSOD); test: Western blot analysis of Cu/ZnSOD protein expression in cbTCC cells; conditions: 10^−9M, 24 hours, normalized to β-actin, control = 100 percent, ± standard deviation
Procedure: as §1

[8] = test system: glutathione peroxidase (GPX); test: Western blot analysis of GPX protein expression in cbTCC cells; conditions: 10^−9M, 24 hours, normalized to β-actin, control = 100 percent, ± standard deviation
Procedure: as §1

[9] = test system: VDR; test: Quantitative PCR gene expression of VDR in cbTCC cells; conditions: 24 hours, normalized to Cyclophilin A, mean ± SEM, control 2.09 ± 0.19
[10] = test system: manganese superoxide dismutase (MnSOD); test: Western blot analysis of MnSOD protein expression in cbTCC cells; conditions: 10^−9M, 24 hours, normalized to β-actin, control = 100 percent, ± standard deviation
Procedure: as §1

| SMILES | CAT gene expression value by quantitative PCR ([1]; 10^−7 M) | CAT gene expression value by quantitative PCR ([1]; 10^−9 M) | MnSOD gene expression value by quantitative PCR ([2]; 10^−7 M) | MnSOD gene expression value by quantitative PCR ([2]; 10^−9 M) | Cu/ZnSOD gene expression value by quantitative PCR ([3]; 10^−7 M) | Cu/ZnSOD gene expression value by quantitative PCR ([3]; 10^−9 M) | Enzymatic activity of catalase ([4]; 10^−7M) [nmol/min/mL] | Enzymatic activity of catalase ([4]; 10^−9M) [nmol/min/mL] | PTHrP gene expression value by quantitative PCR ([5]; 10^−7 M) | PTHrP gene expression value by quantitative PCR ([5]; 10^−9 M) | Catalase protein expression, percent intensity of the protein band relative to the control [6] [%] | Cu/ZnSOD protein expression, percent intensity of the protein band relative to the control [7] [%] | GPX protein expression, percent intensity of the protein band relative to the control [8] [%] | VDR gene expression value by quantitative PCR ([9]; 10^−7 M) | VDR gene expression value by quantitative PCR ([9]; 10^−9 M) | MnSOD protein expression, percent intensity of the protein band relative to the control [10] [%] |
| --- | --- | --- | --- | --- | --- | --- | --- | --- | --- | --- | --- | --- | --- | --- | --- | --- |
| C=C1/C(=C\C=C2/CCC[C@]3(C)[C@@H]([C@H](C)CCCC(C)(C)O)CC[C@@H]23)C[C@@H](O)C[C@@H]1O [Calcitriol, 1α,25-dihydroxyvitamin D3] | 2.60 ± 0.11 | 2.13 ± 0.06 | 1.05 ± 0.03 | 1.15 ± 0.04 | 1.18 ± 0.03 | 1.16 ± 0.02 | 12.24 ± 0.80 | 12.51 ± 0.42 | 1.16 ± 0.05 | 1.36 ± 0.11 |  |  |  |  |  |  |
| C=C1C(=CC=C2CCCC3(C)C(C(C)CC#CC(C)(C)O)=CCC23)CC(O)CC1O (stereo not drawn) [Analog V, 1α,25-dihydroxy-16-ene-23-yne-vitamin D3] |  |  |  |  |  |  |  | 13.93 ± 0.53 |  |  |  |  |  |  |  |  |
| C=C1/C(=C\C=C2/CCC[C@]3(C)[C@@H]([C@H](C)/C=C/C=C/C(O)(CC)CC)CC[C@@H]23)C[C@@H](O)C[C@@H]1O [Seocalcitol, 1α,25-dihydroxy-22,24-diene-24,26,27-trihomovitamin D] | 2.66 ± 0.08 | 2.55 ± 0.13 | 1.11 ± 0.05 | 1.16 ± 0.05 | 1.17 ± 0.01 | 1.20 ± 0.07 |  | 13.99 ± 0.99 | 1.20 ± 0.07 | 1.30 ± 0.02 | 162.68 ± 39.88 | 101.27 ± 26.41 | 81.85 ± 37.45 | 1.99 ± 0.09 | 1.45 ± 0.10 | 113.48 ± 20.56 |
